Assay results from US20220218679A1, “NOVEL COMPOUNDS AND PHARMACEUTICAL COMPOSITIONS THEREOF FOR THE TREATMENT OF INFLAMMATORY DISORDERS” (Galapagos NV, priority 2019, published 2022).

Legend:
[1] = system: mouse CIA model; assay: Mouse collagen induced arthritis (CIA) model; type: in vivo, DBA1/J mice; conditions: 3, 10 and 30 mg/kg b.i.d., versus disease vehicle group
Method: Completed Freund's adjuvant (CFA) and incomplete Freund's adjuvant (IFA) were purchased from Difco. Bovine collagen type II (CII), lipopolysaccharide (LPS), and Enbrel was obtained from Chondrex (Isle d'Abeau, France); Sigma (P4252, L'Isle d'Abeau, France), Whyett (25 mg injectable syringe, France) Acros Organics (Palo Alto, Calif.), respectively. All other reagents used were of reagent grade and all solvents were of analytical grade.
DBA1/J mice (male, 7-8 weeks old) were obtained from Charles River Laboratories (France). Mice were kept on a 12 h light/dark cycle (07 h 00-19 h 00). Temperature was maintained at 22° C., and food and water were provided ad libitum.
5.1.3. Collagen Induced Arthritis (CIA)
One day before the experiment, CII solution (2 mg/mL) was prepared with 0.05 M AcOH and stored at 4° C. Just before the immunization, equal volumes of adjuvant […] and CII were mixed by a homogenizer in a pre-cooled glass bottle in an ice water bath. Extra adjuvant and prolonged homogenization may be required if an emulsion was not formed. […]
The therapeutic effects of the compounds were tested in the mouse CIA model. […] Body weight and clinical score, were recorded twice a week. […]
Arthritis is scored according to the method of (Khachigian, 2006; Lin et al., 2007; Nishida et al., 2004). […]
For each readout, mean and sem are calculated. […]

[2] = system: MIA induced inflammatory hypersensitivity to pain; assay: MIA rat pain model (weight bearing); type: in vivo, Male Sprague Dawley
Excerpt: 5.11.1. Principle of the Assay
The mono-iodoacetate (MIA) model has become a standard model established by Van der Kraan (van der Kraan et al., 1989) for modelling joint disruption in OA in rat.
Intra-articular injection of MIA in rodents reproduces OA-like lesions and functional impairment that can be analyzed and quantified. MIA is an inhibitor of […], disrupting cellular glycolysis and eventually resulting in cell death (van der Kraan et al., 1989).
The MIA pain mouse model described by Pitcher et al. (Pitcher et al. 2016) is used to evaluate the effect of a test compound against tactile allodynia by intra-articular injection of MIA causes chondrocyte cell death, leading to cartilage degeneration and subsequent subchondral bone alterations such as appearance of bone osteophytes (Janusz et al., 2001).
MIA is the one most often used, particularly to test the efficacy of pharmacologic agents to treat pain, as this model generates a reproducible, robust, and rapid pain-like phenotype that can be graded by altering MIA dosage.
Male Sprague Dawley (250-300 g) were housed at 22±1° C. and in light-controlled environment (lights on from 7 am to 8 pm) with ad libitum access to food and water.
Inflammatory hypersensitivity to pain was induced by an injection of Monosodium Iodoacetate (MIA) 25 ul 80 mg/ml solution, into the left knee joint. Animals developed inflammatory response within 3 days post MIA.
The test compounds were administered to the treatment groups on a […] basis, starting from day 3 (D3), and continued until the end-point day on D28.
On day 3, weight-bearing measurements were taken and animals ranked and randomized to treatment groups.
On the test days, pre-dose allodynia was evaluated prior to dosing, and the effects of the administered compounds assessed 2 hours post dosing.
The test compounds were administered to the treatment groups on daily basis, according to treatment group, (some were dosed days 3-7 post MIA, and some were dosed days 24-28 post MIA) and 2 hours post dosing weight-bearing measurements were taken.
The negative control group (n=6) was daily dosed per os with the vehicle (methylcellulose, MC 0.5%), the positive control group (n=10) was daily dosed per os with Celecoxib (50 mg/kg), and the test compound group (n=10) was daily dosed per os, with 0.5% MC/Solutol for days 3-7 post MIA (Inflammatory Phase). […]
For each readout, mean and sem are calculated. A difference statistically significant between intact or treated groups and in MIA vehicle group is evaluated with Prism software using a Two-way ANOVA (for treatment groups) followed by a Dunnett's multiple comparisons post-hoc test. *: p<0.05; **: p<0.01; ***: p<0.001 versus MIA Vehicle group.

COc1cn2nc(CCC(C)(C)O)cc2cc1NC(=O)c1cccn(C2CC2)c1=O [Compound 1, 1-cyclopropyl-N-[2-(3-hydroxy-3-methylbutyl)-6-methoxypyrazolo[1,5-a]pyridin-5-yl]-2-oxopyridine-3-carboxamide]
effect on bone erosion Larsen Score [1]: statistically significant effect
effect on clinical score [1]: statistically significant effect
reversal of inflammatory response on weight bearing ([2]; 5 mg/kg daily per os, days 5-7): significantly reversed the inflammatory response
reversal of inflammatory response on weight bearing ([2]; 5 mg/kg daily per os, days 26-28): significantly reversed the inflammatory response
reversal of inflammatory response on weight bearing ([2]; 30 mg/kg daily per os, days 3-7): significantly reversed the inflammatory response
reversal of inflammatory response on weight bearing ([2]; 30 mg/kg daily per os, days 26-28): significantly reversed the inflammatory response
